From patent US10028971B2, “Compositions and methods for treating psychiatric disorders” (GOSFORTH CENTRE (HOLDINGS) PTY LTD., priority 2008, dated 2018)
Read-outs that look alike come from different tables or passages of the source.

Key:
[1] = system: individuals with MCI or dementia; details: cited from earlier work; for effect in mild cognitive impairment (reports): individuals with MCI
[2] = system: adults with ADHD; details: for group outcome of combination therapy: adults with ADHD
Procedure: In the clinical setting a number of adults with ADHD experienced a combination therapy of stimulant medication (dexamphetamine) in combination with sodium valproate (VPA). The initial dosages used were from 15 to 70 mg/day of dexamphetamine and from 100 to 700 mg/day of VPA (Epilim) (=approximately 2 to 10 mg/kg/day).
The determination of the dose for the dexamphetamine was undertaken in a clinical sensitive open label manner. The dose was titrated upwards dependent on the clinical response and the freedom from side-effects. The dose range was between 15 and 70 mg a day. The frequency of the dosing also varied dependent upon the clinical response. The usual dose interval was between two to four hours. This dosing adjustment took place prior to the commencement of the sodium valproate. The sodium valproate medication was initiated once a day at 50 mg tablet or elixir and titrated upwards dependent on response, but not more than one increase every three days. The dose was given as a once or twice a day regime. During the titration phase, if clinically possible, no other adjustments to the pharmacotherapy were undertaken.

[3] = system: individuals with developmental dyspraxia / poor coordination; assay: Treatment of developmental dyspraxia, clinical observation; format: in vivo, human; details: person, ADHD
Excerpt: Many of the individuals treated at this clinic, with a diagnosis of ADHD and/or pervasive development disorder such Asperger's Syndrome or autism also present with symptoms consistent with a diagnosis of a developmental coordination disorder. They are often described as ‘unco’ (unco-ordinated) by their peers and experience victimization, poor self-esteem and frustration as a consequence of their poor coordination. […] Individuals have described a sense of having more time to coordinate movements and to understand and integrate their own activity appropriately within a team sport such as soccer, which has previously eluded them. Individuals have felt frustration at being able to practise repeatedly an activity or skill only to be unable to put it into practice when required, within the play of a match. It is proposed that individuals were previously unable to process and plan their own coordination but remain aware of the general activity in which they were participating.

[4] = system: patients with an eating disorder and ADHD; details: double-blind studies; effects thought only short-lived; cited from earlier work
[5] = in vivo; cited from earlier work
[6] = system: patients with an eating disorder and ADHD; assay: Treatment of eating disorders, clinical observation; details: person
Excerpt: The use of sodium valproate at low dose levels can then be titrated to a level that does effectively control these thoughts. This may or may not be at the therapeutic dose used in the treatment of bipolar disorder.

[7] = system: Parkinson's disease patient; assay: Parkinson's disease clinical example with infrared eye tracking; format: in vivo, human; details: 12.5 mg phenytoin
Excerpt: Clinical example person with a ten-year history of Parkinson's disease. Moderate to severe motor symptoms with muscle rigidity, resting tremor, brady-[…] slowing of speech. No evidence of dementia or depression. […] An enhanced initiation of movement. Also described an improved perception of efficiency in thought and action. No evidence of loss of efficacy of medication. Using infrared eye tracking technology it was noted that the fixations and […] movements were enhanced after treatment. Measurements were undertaken both whilst silent and speaking with and without eye contact with the investigator. Based on these investigations in Parkinson's disease and also in mild cognitive impairment and dementia we consider that condition is described as Parkinson plus diseases, including multiple system atrophy (MSA), progressive supranuclear palsy (PSP), corticobasal degeneration (CBD), and dementia with Lewy bodies (DLB)s may also benefit from the addition of a low dose AED with and without a psychostimulant.

[8] = system: individuals with MCI or dementia; assay: Mild cognitive impairment and dementia, clinical cases (Developmental Eye Movement test, Alzheimer's Quick Test); format: in vivo, human; details: person
Excerpt: A married person with a history of good cognitive functioning until last 4-5 yrs when noted by both their spouse and themself to becoming increasingly socially withdrawn primarily because of the difficulty in listening without distraction during social interaction, no known childhood or adult history of prior attentional or impulsive disorders. It has been clinically observed by the inventor that individuals treated with low dose antiepileptic were enhanced in their ability to discriminate irrelevant from the relevant sound was enhanced. […] On ceasing the medication there was an initial improvement again over the preceding 3 to 7 days followed by a loss of the therapeutic effects and returned to their pre-medication function. On the ressumption of the 12.5 mg phenytoin there was a return of the improved function. On this second occasion they were more aware of the benefits and also the gradual return of the detrimental clinic effects. During the clinical assessment it was noted that they had more flexibility in their conversation and more natural use of non-verbal cues, there was also enhancement of their egocentric gaze. […] These benefits were also noted by their spouse. […] Again these medications were ceased resulting in a loss of associated benefits. With each trial of medication they became more apparent to the patient and their spouse of the benefits of the therapy. They attempted whilst not taking the medication to communicate and follow the conversation in a way that they had been able to whilst on treatment. They found when attempting to do so they became mentally exhausted and unable to sustain the effort required for the interaction. The improvements noted clinically and also recorded using the Developmental Eye Movement test and a measure of parietal function the Alzheimer's Quick Test. Married person diagnosed with fronto-temporal dementia. they had been assessed by neuropsychologist, and geriatrician and psychiatrist to confirm this diagnosis. […] They then relied on others to make decisions for […]. They had gradually become socially disengaged finding such interactions distressing and demanding. […] Despite ongoing difficulties of word finding they were able to socially interact more spontaneously than they had done for many years. And have confidence in areas of conversation that they previously would have avoided. […] On two occasions the medication was withdrawn and then reintroduced, due to the experimental nature of treatment and concern that there might be a significant placebo effect. […] Following the subsequent reduction there was a return of the improvement previously noted.

[9] = system: adherence to medication regime; details: person, anxiety and depression, no ADHD; 25 mg phenytoin
Excerpt: As a result, taking medication becomes an automatic activity which doesn't require a high level of attention and motivation.
The individual experiences an improvement in the ability to efficiently and effectively attend to a task in hand, without also needing to expend extra cognitive effort to remember which medication to take and at what times.

[10] = system: mood stabilisation or epileptic symptoms or events; details: cited from earlier work; for Minimum Dose/day effective for mood stabilisation or treatment of epileptic symptoms or events: usual minimum anti-convulsant dose per day
[11] = system: patients with substance addiction; assay: Treatment of addictions, clinical observation; format: in vivo, human; details: person; dexamphetamine alone over 6 months
Excerpt: Addiction to amphetamines poses a number of unique challenges.

[12] = system: patients with substance addiction; details: psychostimulants alone; cited from earlier work
[13] = system: individual not meeting the full criteria for ADHD; assay: Subthreshold ADHD, clinical case (Example 21); format: in vivo, human; details: person; topiramate 12.5 mg daily added to dexamphetamine 2.5 mg daily
[14] = fronto-temporal dementia, 25 mg phenytoin

CCN(C)C(=O)Oc1cccc([C@H](C)N(C)C)c1 [Rivastigmine]
effect in mild cognitive impairment (reports) [1]: failed to stop or slow progression to Alzheimer's disease or improve cognitive function

COC(=O)C(c1ccccc1)C1CCCCN1 (stereo not shown) [methylphenidate]
clinical outcome (case) ([2]; adult female, ADHD, anorexia nervosa bulimic subtype, methylphenidate alone): reasonable improvement
clinical outcome (case) ([2]; person 120 kg, ADHD, methylphenidate 120 mg per day alone): Remain disorganized and inconsistent with taking medication
clinical outcome (case) ([2]; person, ADHD, methylphenidate 55 mg): improvement in their symptoms of impaired attention and concentration
clinical outcome (case) ([2]; person, anorexia nervosa, ADHD, methylphenidate alone): inconsistent
clinical outcome (case) ([3]; autism, developmental dyspraxia, methylphenidate max 95 mg daily): Limited improvement with poor compliance
effect on bulimic symptoms [4]: suppression of bulimic symptoms
duration of action [5]: 2 to 4 h
clinical outcome (case) ([6]; anorexia nervosa, ADHD, methylphenidate, 45 mg extended release): inconsistent

O=C1NC(=O)C(c2ccccc2)(c2ccccc2)N1 [Phenytoin]
course of benefit on continued dosing ([2]; 50 mg phenytoin dose with dexamphetamine, many clinical situations): loss of benefit of the therapy over the proceeding weeks and months
clinical outcome (case) ([2]; adult female, phenytoin 50 mg added to sodium valproate 100 mg and methylphenidate): Pervasive and robust psychosocial improvement
group outcome of combination therapy ([2]; Methylphenidate 40 mg/d, Valproate 100 mg/d, Phenytoin 50 mg/d): successfully treated
group outcome of combination therapy ([2]; dexamphetamine 20-45 mg/d, Valproate 100-400 mg/d, Phenytoin 12.5-50 mg/d): successfully treated
group outcome of combination therapy ([2]; dexamphetamine 20-75 mg/d with Phenytoin 1-75 mg/d): successfully treated
group outcome of combination therapy ([2]; methylphenidate 15-105 mg/d with Phenytoin 25-50 mg/d): successfully treated
clinical outcome (case) ([2]; person, ADHD, phenytoin 30 mg added to dexamphetamine): improvement in ability to read and sustain enjoyable conversation
clinical outcome (case) ([2]; person, 12.5 mg phenytoin added to sodium valproate 100 mg and dexamphetamine): Significant improvement in ability to maintain egocentric eye gaze and cognition
clinical outcome (case) ([2]; person, 50 mg phenytoin added to methylphenidate 120 mg per day): improved cognition with increased confidence in interpersonal relationships
clinical outcome (case) ([2]; person, phenytoin 20 mg per day added to sodium valproate and dexamphetamine): further improvement of the sequencing and organisation of thoughts
clinical outcome (case) ([2]; person, phenytoin 50 mg later 25 mg added to dexamphetamine and sodium valproate 200 mg): immediate improvement of stability of affect and clarity of thinking
clinical outcome (case) ([3]; phenytoin 25 mg added to dexamphetamine 25 mg, atomexetine 60 mg, sodium valproate 150 mg): improvement in coordination
fixations and saccadic eye movements after treatment ([7]; infrared eye tracking): enhanced
clinical outcome (case) ([7]; person, ten-year Parkinson's disease): improved verbal fluency, enhanced and less effortful social connection and eye contact
time to noted improvement ([7]; person): 2 to 3 days
clinical outcome (case) [8, 14]: remarkable improvement in their cognitive functioning
rapid automatic naming and Alzheimer's Quick Test (AQT) [8, 14]: significant improvement in their functioning
clinical outcome (case) ([8]; social withdrawal, phenytoin 12.5 mg daily): able to socially interact in a more meaningful way
clinical outcome (case) ([8]; phenytoin 10 mg added to low dose sodium valproate): more robust improvement on either medication alone
clinical outcome (case) ([8]; phenytoin 50 mg for two weeks): loss of the therapeutic benefit and general impairment
clinical outcome (case) ([8]; phenytoin increased to 25 mg, over 6 to 8 weeks): loss of the benefits
clinical outcome (case) [9]: improved self organisation and ability to plan ahead without effort
Minimum Dose/day effective for mood stabilisation or treatment of epileptic symptoms or events [10]: 200 mg

COc1cc2c(cc1OC)C(=O)C(CC1CCN(Cc3ccccc3)CC1)C2 (stereo not shown) [Donepezil]
side effects in MCI (reports) ([1]; human, in vivo): significant side effects
effect in mild cognitive impairment (reports) [1]: only minor, short-term benefits

C[C@H](N)Cc1ccccc1 [dexamphetamine]
stability and functional benefit (case) [11]: not noted
use alone in treatment of amphetamine and cocaine addiction [12]: unhelpful

CC1(C)O[C@@H]2[C@@H](CO[C@@]3(COS(N)(=O)=O)OC(C)(C)O[C@@H]23)O1 [Topiramate, 2,3:4,5-Bis-O-(1-methylethylidene)-beta-D-fructopyranose sulfamate]
group outcome of combination therapy ([2]; dexamphetamine 30-80 mg/d with Topiramate 12.5-50 mg/d): successfully treated
group outcome of combination therapy ([2]; median 40 mg/d Dexamphetamine, 120 mg/d Sodium Valproate, 25 mg/d Topiramate): successfully treated
group outcome of combination therapy ([2]; methylphenidate 40-55 mg/d with Topiramate 12-37.5 mg/d): successfully treated
clinical outcome (case) ([2]; person, ADHD, 25 mg topiramate added to dexamphetamine 30 mg): ability to complete tasks, improvement in cognition
clinical outcome (case) ([2]; person, 25 mg topiramate added to oros extended release methylphenidate): improved organisation, cognition, enhanced interpersonal functioning, and ability to sustain egocentric eye gaze
clinical outcome (case) ([2]; person, topiramate 25 mg added to sodium valproate 300 mg and dexamphetamine 20 mg): Further improvements in interpersonal professional functioning
clinical outcome (case) [13]: significant improvement
target dose for controlling epileptic seizures ([10]; in vivo): 100 to 500 mg/day
Minimum Dose/day effective for mood stabilisation or treatment of epileptic symptoms or events [10]: 100 mg
clinical outcome (case) ([6]; 25 mg topiramate added to 45 mg extended release methylphenidate): improved organisation, enhanced interpersonal functioning, improved cognition and able to sustain egocentric eye gaze
